This data set deals with rodent lifetime carcinogenesis bioassay, tumor incidence TD50. Briefly: carcinogenic potency in animals, long-term in vivo studies, CPDB compilation (AID 1745844).

For eight compounds, carcinogen call and TD50 results are on record in PubChem BioAssay AID1745844 (Carcinogenic Potency Database (CPDB), 2022).

Each structure is given as a SMILES string. Active and inactive are the calls of the source. How the calls were made is not given here.

`CCNNC(=O)[C@@H]1[C@H](c2cc(OC)c(OC)c(OC)c2)c2cc3c(cc2[C@H](O)[C@H]1CO)OCO3`: for the setting “rat, strain BR 46, males, i.v., site: any site (literature study), lesion: several types, types named in the paper, dosed 52 weeks, study length 104 weeks”, the carcinogen call is “negative (inactive)”.

A word on the TD50: it is the 50% point of the dose-response relation for the toxic effect studied. For `CC1CN(N=O)CC(C)N1C` (stereo unspecified), the TD50 is 1.32 mg/kg/day (hamster, strain Syrian Golden, males, by gavage, site: forestomach, lesion: papilloma, dosed 46 weeks, study length 69 weeks); 6.18 mg/kg/day (hamster, strain Syrian Golden, males, by gavage, site: liver, lesion: angiosarcoma, dosed 46 weeks, study length 69 weeks); 1.73 mg/kg/day (hamster, strain Syrian Golden, males, by gavage, site: lung, lesion: adenoma, dosed 46 weeks, study length 69 weeks); 3.2 mg/kg/day (hamster, strain Syrian Golden, males, by gavage, site: lung, lesion: carcinoma, dosed 46 weeks, study length 69 weeks); 0.151 mg/kg/day (rat, strain Fischer 344, females, in drinking water, site: nasal cavity, lesion: olfactory carcinoma, dosed 30 weeks, study length 85 weeks).

Turning to `CCN(Cc1cccc(S(=O)(=O)O)c1)c1ccc(C(=C2C=CC(=[N+](CC)Cc3cccc(S(=O)(=O)[O-])c3)C=C2)c2ccc(S(=O)(=O)O)cc2)cc1`, the TD50 was 152000 mg/kg/day (inactive) (mouse, strain C3HeB/FeJ, females, in feed, site: any site (literature study), lesion: malignant tumor, dosed 104 weeks, study length 104 weeks); 148000 mg/kg/day (mouse, strain C3HeB/FeJ, females, in feed, site: any site (literature study), lesion: several types, types named in the paper, dosed 104 weeks, study length 104 weeks); 43800 mg/kg/day (mouse, strain C3HeB/FeJ, females, in feed, site: lung, lesion: several types, types named in the paper, dosed 104 weeks, study length 104 weeks); 49300 mg/kg/day (inactive) (mouse, strain C3HeB/FeJ, males, in feed, site: any site (literature study), lesion: malignant tumor, dosed 104 weeks, study length 104 weeks); 318000 mg/kg/day (mouse, strain C3HeB/FeJ, males, in feed, site: any site (literature study), lesion: several types, types named in the paper, dosed 104 weeks, study length 104 weeks); 18900 mg/kg/day (mouse, strain C3HeB/FeJ, males, in feed, site: liver, lesion: several types, types named in the paper, dosed 104 weeks, study length 104 weeks). The TD50 is 58200 mg/kg/day (mouse, strain C3HeB/FeJ, males, in feed, site: lung, lesion: several types, types named in the paper, dosed 104 weeks, study length 104 weeks) and 5640 mg/kg/day (rat, strain Wistar, both sexes, in feed, site: cecum, lesion: malignant lymphoma, dosed 95 weeks, study length 95 weeks). Moreover, the carcinogen call runs as follows: (rat, strain Not specified, males, in feed, site: any site (literature study), lesion: one or several types, types not named, dosed 65 weeks, study length 65 weeks) “negative (inactive)”; (rat, strain Osborne-Mendel, females, in feed, site: any site (literature study), lesion: malignant tumor, dosed 104 weeks, study length 104 weeks) “negative (inactive)”; (rat, strain Osborne-Mendel, females, in feed, site: any site (literature study), lesion: several types, types named in the paper, dosed 104 weeks, study length 104 weeks) “negative (inactive)”; (rat, strain Osborne-Mendel, females, in feed, site: liver, lesion: one or several types, types not named, dosed 104 weeks, study length 104 weeks) “negative (inactive)”; (rat, strain Osborne-Mendel, males, in feed, site: any site (literature study), lesion: malignant tumor, dosed 104 weeks, study length 104 weeks) “negative (inactive)”; (rat, strain Osborne-Mendel, males, in feed, site: any site (literature study), lesion: several types, types named in the paper, dosed 104 weeks, study length 104 weeks) “negative (inactive)”. For the same compound, the carcinogen call (rat, strain Osborne-Mendel, males, in feed, site: liver, lesion: hepatocellular adenoma, dosed 104 weeks, study length 104 weeks) was “negative (inactive)”.

Consider `Oc1c(Cl)cc(Cl)c(Cl)c1Cc1c(O)c(Cl)cc(Cl)c1Cl`, for which the carcinogen call is, setting by setting: (mouse, strain C57BL, females, in feed, site: any site (literature study), lesion: several types, types named in the paper, dosed 104 weeks, study length 104 weeks) “negative (inactive)”; (mouse, strain C57BL, males, in feed, site: liver, lesion: one or several types, types not named, dosed 104 weeks, study length 104 weeks) “negative (inactive)”; (mouse, strain C57BL, males, in feed, site: lung, lesion: one or several types, types not named, dosed 104 weeks, study length 104 weeks) “negative (inactive)”; (mouse, strain XVII/G, females, in feed, site: liver, lesion: one or several types, types not named, dosed 104 weeks, study length 104 weeks) “negative (inactive)”; (rat, strain Fischer 344, females, in feed, site: any site (literature study), lesion: several types, types named in the paper, dosed 106 weeks, study length 106 weeks) “negative (inactive)”. The TD50 runs as follows: (mouse, strain C57BL, females, in feed, site: liver, lesion: hepatoma, dosed 104 weeks, study length 104 weeks) 434 mg/kg/day (inactive); (mouse, strain C57BL, males, in feed, site: any site (literature study), lesion: several types, types named in the paper, dosed 104 weeks, study length 104 weeks) 900 mg/kg/day (inactive); (mouse, strain XVII/G, females, in feed, site: any site (literature study), lesion: several types, types named in the paper, dosed 104 weeks, study length 104 weeks) 39.4 mg/kg/day (inactive); (mouse, strain XVII/G, females, in feed, site: lung, lesion: one or several types, types not named, dosed 104 weeks, study length 104 weeks) 33.4 mg/kg/day (inactive); (mouse, strain XVII/G, males, in feed, site: any site (literature study), lesion: several types, types named in the paper, dosed 104 weeks, study length 104 weeks) 17.8 mg/kg/day (inactive); (mouse, strain XVII/G, males, in feed, site: liver, lesion: adenoma, dosed 104 weeks, study length 104 weeks) 450 mg/kg/day (inactive). The TD50 (mouse, strain XVII/G, males, in feed, site: lung, lesion: one or several types, types not named, dosed 104 weeks, study length 104 weeks) was 17.8 mg/kg/day (inactive); the TD50 (rat, strain Fischer 344, males, in feed, site: any site (literature study), lesion: several types, types named in the paper, dosed 106 weeks, study length 106 weeks) stood at 30.4 mg/kg/day; the TD50 (rat, strain Fischer 344, males, in feed, site: subcutaneous tissue, lesion: fibrosarcoma, dosed 106 weeks, study length 106 weeks) is 41.3 mg/kg/day (inactive); the TD50 (rat, strain Fischer 344, males, in feed, site: tunica vaginalis, lesion: mesothelioma, NOS, dosed 106 weeks, study length 106 weeks) stood at 57.5 mg/kg/day.

In the case of `O=S(=O)([O-])[O-].[Ni+2]`, the carcinogen call is “negative (inactive)” (mouse, strain B6C3F1, females, inhaled, site: any site (literature study), lesion: several types, types named in the paper, dosed 104 weeks, study length 104 weeks); “negative (inactive)” (mouse, strain B6C3F1, males, inhaled, site: any site (literature study), lesion: several types, types named in the paper, dosed 104 weeks, study length 105 weeks); “negative (inactive)” (rat, strain Fischer 344, females, inhaled, site: any site (literature study), lesion: several types, types named in the paper, dosed 104 weeks, study length 104 weeks); “negative (inactive)” (rat, strain Fischer 344, males, inhaled, site: any site (literature study), lesion: several types, types named in the paper, dosed 104 weeks, study length 105 weeks). Besides, the TD50 reads like this: (mouse, strain B6C3F1, females, inhaled, site: lung, lesion: alveolar/bronchiolar adenoma + alveolar/bronchiolar carcinoma, dosed 104 weeks, study length 104 weeks) 3.1 mg/kg/day; (rat, strain Fischer 344, males, inhaled, site: liver, lesion: hepatocellular adenoma + hepatoblastoma + hepatocellular carcinoma, dosed 104 weeks, study length 105 weeks) 2.08 mg/kg/day.

As for `[N-]=[N+]=O`, the carcinogen call is “negative (inactive)” (mouse, strain Swiss Webster, females, inhaled, site: liver, lesion: one or several types, types not named, dosed 78 weeks, study length 83 weeks); “negative (inactive)” (mouse, strain Swiss Webster, females, inhaled, site: several sites, sites named in the paper, lesion: one or several types, types not named, dosed 78 weeks, study length 83 weeks); “negative (inactive)” (mouse, strain Swiss Webster, males, inhaled, site: liver, lesion: one or several types, types not named, dosed 78 weeks, study length 83 weeks); “negative (inactive)” (mouse, strain Swiss Webster, males, inhaled, site: lung, lesion: adenoma, dosed 78 weeks, study length 83 weeks); “negative (inactive)” (mouse, strain Swiss Webster, males, inhaled, site: several sites, sites named in the paper, lesion: one or several types, types not named, dosed 78 weeks, study length 83 weeks). For the same compound, the TD50 (mouse, strain Swiss Webster, females, inhaled, site: lung, lesion: adenoma, dosed 78 weeks, study length 83 weeks) was 309000 mg/kg/day (inactive).

Take `Cc1ccc(-c2cc(C(F)(F)F)nn2-c2ccc(S(N)(=O)=O)cc2)cc1`: the carcinogen call (rat, strain Fischer 344, males, in feed, site: colon, lesion: one or several types, types not named, dosed 53 weeks, study length 53 weeks) was “negative (inactive)”.

`S=C(SSSSSSC(=S)N1CCCCC1)N1CCCCC1`: the TD50 runs as follows: (mouse, strain B6AKF1, females, oral dosing, site: any site (literature study), lesion: several types, types named in the paper, dosed 76 weeks, study length 76 weeks) 120 mg/kg/day (inactive); (mouse, strain B6C3F1, females, oral dosing, site: any site (literature study), lesion: several types, types named in the paper, dosed 76 weeks, study length 76 weeks) 83.1 mg/kg/day (inactive); (mouse, strain B6C3F1, females, oral dosing, site: lung, lesion: adenoma, dosed 76 weeks, study length 76 weeks) 83.1 mg/kg/day (inactive); (mouse, strain B6C3F1, males, oral dosing, site: any site (literature study), lesion: several types, types named in the paper, dosed 76 weeks, study length 76 weeks) 52.5 mg/kg/day (inactive); (mouse, strain B6C3F1, males, oral dosing, site: liver, lesion: hepatoma, dosed 76 weeks, study length 76 weeks) 113 mg/kg/day (inactive); (mouse, strain B6C3F1, males, oral dosing, site: lung, lesion: adenoma, dosed 76 weeks, study length 76 weeks) 113 mg/kg/day (inactive). Also, the carcinogen call by setting is: (mouse, strain B6AKF1, females, oral dosing, site: liver, lesion: hepatoma, dosed 76 weeks, study length 76 weeks) “negative (inactive)”; (mouse, strain B6AKF1, females, oral dosing, site: lung, lesion: adenoma, dosed 76 weeks, study length 76 weeks) “negative (inactive)”; (mouse, strain B6AKF1, males, oral dosing, site: any site (literature study), lesion: several types, types named in the paper, dosed 76 weeks, study length 76 weeks) “negative (inactive)”; (mouse, strain B6AKF1, males, oral dosing, site: liver, lesion: hepatoma, dosed 76 weeks, study length 76 weeks) “negative (inactive)”; (mouse, strain B6AKF1, males, oral dosing, site: lung, lesion: adenoma, dosed 76 weeks, study length 76 weeks) “negative (inactive)”; (mouse, strain B6C3F1, females, oral dosing, site: liver, lesion: hepatoma, dosed 76 weeks, study length 76 weeks) “negative (inactive)”.
